For 25 molecules, IC50 and EC50 results are on record in patent US9150578B2, “5,8-dihydro-6H-pyrazolo[3,4-h]quinazolines as IGF-1R/IR inhibitors” (Boehringer Ingelheim International GmbH, priority 2012, dated 2015).

Test [1] deals with cytoplasmic kinase domain of human IGF-1R (IGF-1R-GST) (Homo sapiens (Human), UniProt P08069). Description: Insulin-like growth factor-1 receptor (IGF-1R) kinase assay (DELFIA). The format is biochemical. As to conditions: inhibition of IGF-1R-kinase activity, read-out: IGF1R IC50. The procedure:
Insulin-Like Growth Factor-1 Receptor (IGF-1R)-Kinase Assay
The kinase activity is measured by DELFIA® assay (dissociation-enhanced lanthanide fluorescence immunoassay, Perkin Elmer). […] Enzyme activity is measured in the presence of substances and a control substance. Poly-glutamate-tyrosine peptide (pEY, Sigma Aldrich) and biotinylated pEY (bio-pEY) are used as reaction substrates.
After 40 min at RT the reactions are stopped with 50 μL of stop solution (250 mM EDTA, 20 mM HEPES pH 7.4). 90 μL from each reaction are transferred onto streptavidin-coated 96-well plates. After 120 min incubation at RT the plates are washed three times with 200 μL phosphate-buffered saline (PBS) per well. The plates are incubated for 60 min with 100 μL of europium-coupled antibody against phospho-tyrosine (diluted 1/2000 in Perkin Elmer DELFIA assay buffer) per well. The plates are washed three times with 200 μL per well of DELFIA washing buffer. 100 μL DELFIA Enhancement Solution (Perkin Elmer) is added to each well, and the plates are incubated for 10 min. The fluorescence signal is measured with a Wallac Victor TRF Reader. IC50 values for the inhibition of the IGF-1R-kinase activity are calculated using the programmes Fifty (Version 2) and GraphPad (Version 3.0).

In test [2] the target is human IGF-1R (Homo sapiens (Human), UniProt P08069). The test can be described thus: Cellular IGF-1R-phosphorylation assay (Fibro-hIGF-1R cells). The format is cell-based. Conditions: IGF-1 stimulated (20 ng/mL, 30 min), 120 min compound incubation, read-out: pIGF-1R EC50 range. The procedure:
Cellular IGF-1R-Phosphorylation Assay
The activity of substances against the phosphorylation of IGF-1R in activated cells is measured as follows: mouse fibroblast cells (transfected with human IGF-1R, Fibro-hIGF-1R) are cultivated in standard medium (DMEM, 10% foetal calf serum (FCS, Gibco), 1×MEM Non-Essential Amino Acids (NEAA, Gibco), 7.5% sodium hydrogen carbonate (Gibco) and 0.3 mg/mL Puromycin (Sigma)) in a humid incubator at 37° C. with 5 CO2/95% air.
10000 Fibro-hIGF-1R cells per well in 200 μL of standard medium are seeded into 96-well plates and cultivated overnight. […] 10 μL of substance solution (diluted in serum-reduced medium) is added thereto, and the cells are incubated for a further 120 min in the incubator. The phosphorylation of IGF-1R is activated for 30 min by the addition of IGF-1 (20 ng/mL in serum-reduced medium). All further incubations are carried out at RT. The supernatant is suction filtered from the wells, and the cells are fixed in 100 μL per well of 4% paraformaldehyde (diluted in PBS). The supernatant in the well is suction filtered and the cells are permeabilised for 5 min in 300 μL per well of 0.1% TritonX-100 (diluted in PBS). […] The cells are washed for 5 min with 300 μL per well of PBS with 0.1% TritonX-100 and then incubated for 60 min with 100 μL per well of blocking buffer (PBS with 0.1% TritonX-100 and 5 Bovine Serum Albumin (BSA)). […] The next day the plates are washed for 5 min with 300 μL PBS/0.1% TritonX-100 at RT and then incubated for 60 min with 50 μL per well of the second antibody buffer (1/500 diluted Goat Anti-Rabbit Immunoglobulin-Horseradish Peroxidase (HRP) (Dako) in blocking buffer) at RT. The plates are washed first for 5 min with 300 μL PBS/0.1% TritonX-100 and then for a further 5 min with 300 μL PBS at RT. The plates are developed for 10 min with 100 μL per well of a peroxidase solution (1:1 mixture of TMB Peroxidase Substrate and Peroxidase Solution B from Kirkegaard & Perry Laboratories, Inc.). The reactions are stopped with 100 μL per well of stop solution (1 M phosphoric acid). The absorbance in each well is measured at 450 nm with a SpectraMax Absorbance Reader. EC50 values for inhibiting the phosphorylation of the IGF-1R in activated cells are calculated using the programmes Fifty (Version 2) and GraphPad (Version 3.0).

Test [3] concerns TC-71 (Ewing's sarcoma) cells. The test can be described thus: Cell proliferation assay, TC-71 (Alamar Blue). The format is cell-based. As to conditions: TC-71 cells, 72 h, read-out: TC71 EC50 range. The procedure:
Cell Proliferation Assays
Published scientific data has described that interference with the Insulin-like Growth Factor-1 Receptor (IGF-1R) signaling pathway reduces the proliferation of TC-71 cells. Therefore TC-71 cells served as a positive control cell line for monitoring the activity of compounds against IGF-1R-mediated cell proliferation.
2000 TC-71 cells or 1000 HCT 116 cells were seeded per well in 180 μL IMDM+10% foetal calf serum (FCS)+penicillin/streptomycin into 96-well microtitre plates. The plates were placed in a cell culture incubator (37° C. in a humidified atmosphere of 95% […]/5 CO2) overnight. The following day, serial dilutions of compounds, prepared in duplicates, were transferred onto the cell layers (controls without compound). The cells were cultivated for a further 72 h in the cell culture incubator. 20 μL of Alamar Blue™ (Serotec Ltd, Düsseldorf, Germany) was added to each well and the plates incubated for 7 h in the cell culture incubator.
Background: The colour change of resazurin is a common sign of viable cells or microbes.

Sequence of cytoplasmic kinase domain of human IGF-1R (IGF-1R-GST) (P08069 964-1367 limits assumed): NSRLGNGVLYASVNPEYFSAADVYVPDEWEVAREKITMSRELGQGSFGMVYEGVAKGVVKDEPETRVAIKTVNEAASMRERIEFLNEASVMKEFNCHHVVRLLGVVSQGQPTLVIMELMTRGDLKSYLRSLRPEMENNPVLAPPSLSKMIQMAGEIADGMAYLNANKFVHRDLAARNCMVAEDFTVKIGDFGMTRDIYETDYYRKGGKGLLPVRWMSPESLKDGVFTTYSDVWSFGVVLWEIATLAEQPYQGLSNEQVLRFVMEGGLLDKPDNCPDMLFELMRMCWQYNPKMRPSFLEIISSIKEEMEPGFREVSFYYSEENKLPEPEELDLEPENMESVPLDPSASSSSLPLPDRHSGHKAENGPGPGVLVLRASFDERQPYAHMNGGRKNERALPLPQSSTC
Sequence of human IGF-1R (P08069 31-1367): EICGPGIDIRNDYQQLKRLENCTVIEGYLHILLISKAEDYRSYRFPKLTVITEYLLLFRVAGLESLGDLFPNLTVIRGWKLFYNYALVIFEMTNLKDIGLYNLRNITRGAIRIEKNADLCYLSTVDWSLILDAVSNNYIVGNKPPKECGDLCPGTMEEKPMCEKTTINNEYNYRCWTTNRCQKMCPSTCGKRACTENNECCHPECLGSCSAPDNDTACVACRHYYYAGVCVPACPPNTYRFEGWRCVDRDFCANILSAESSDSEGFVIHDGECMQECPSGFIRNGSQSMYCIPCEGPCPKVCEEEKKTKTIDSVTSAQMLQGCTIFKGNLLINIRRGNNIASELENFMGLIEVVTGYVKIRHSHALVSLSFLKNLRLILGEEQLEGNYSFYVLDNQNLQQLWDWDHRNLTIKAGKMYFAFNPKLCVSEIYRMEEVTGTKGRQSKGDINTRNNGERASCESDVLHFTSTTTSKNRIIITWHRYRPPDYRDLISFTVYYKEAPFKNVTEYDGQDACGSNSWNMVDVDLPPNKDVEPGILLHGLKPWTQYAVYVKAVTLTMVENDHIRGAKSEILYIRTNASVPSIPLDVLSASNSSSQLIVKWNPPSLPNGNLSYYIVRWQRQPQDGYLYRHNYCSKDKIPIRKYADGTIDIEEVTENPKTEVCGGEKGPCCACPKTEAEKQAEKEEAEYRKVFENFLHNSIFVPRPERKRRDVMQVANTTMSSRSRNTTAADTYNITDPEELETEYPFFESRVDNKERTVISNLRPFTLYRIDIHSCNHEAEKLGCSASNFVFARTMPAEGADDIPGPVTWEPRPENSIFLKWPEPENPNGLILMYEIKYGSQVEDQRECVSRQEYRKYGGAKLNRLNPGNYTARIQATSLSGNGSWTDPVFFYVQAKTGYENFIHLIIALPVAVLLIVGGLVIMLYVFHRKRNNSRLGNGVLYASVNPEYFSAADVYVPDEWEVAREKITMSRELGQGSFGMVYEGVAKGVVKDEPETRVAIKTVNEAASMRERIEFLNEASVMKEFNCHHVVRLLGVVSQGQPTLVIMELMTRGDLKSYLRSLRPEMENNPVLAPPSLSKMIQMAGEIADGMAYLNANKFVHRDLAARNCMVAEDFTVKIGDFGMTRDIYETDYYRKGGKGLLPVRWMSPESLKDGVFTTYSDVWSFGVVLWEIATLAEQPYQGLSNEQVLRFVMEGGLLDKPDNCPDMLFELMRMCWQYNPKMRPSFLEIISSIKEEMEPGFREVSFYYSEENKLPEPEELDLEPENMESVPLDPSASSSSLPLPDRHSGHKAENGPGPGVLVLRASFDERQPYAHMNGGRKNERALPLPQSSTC

As to `CC(=O)N1CCC(n2cc(Nc3ncc4c(n3)-c3c(nn(C)c3Cc3cccc(-c5cnn(C)c5)c3)CC4)cn2)CC1` [I-013], in test [1], the IC50 is 0.39 nM. In addition, the EC50 in test [2] was 10 to 100 nM; in test [3], less than 10 nM.

For `CC(C)n1cc(-c2ccc(-c3c4c(nn3C)CCc3cnc(Nc5cnn(CCN(C)C)c5)nc3-4)cc2)cn1` [I-020], the concentration for half-maximal inhibition (IC50) in test [1] is 0.21 nM. The EC50 in test [2] and in test [3] was less than 10 nM each time.

Regarding `CC(=O)N1CCC(n2cc(Nc3ncc4c(n3)-c3c(nn(C)c3-c3ccc(-c5cnn(C(C)C)c5)cc3)CC4)cn2)CC1` [I-022], the IC50 in test [1] is 0.17 nM. Moreover, the EC50 in test [2] was 10 to 100 nM; in test [3], less than 10 nM.

On to `CC(C)n1cc(-c2ccc(-c3c4c(nn3C)CCc3cnc(Nc5cnn(CCN6CCOCC6)c5)nc3-4)cc2)cn1` [I-023], for which, in test [1], the half-inhibitory concentration (IC50) amounted to 0.42 nM. For the same molecule, the EC50 in test [2] and in test [3] was less than 10 nM in each case.

In the case of `COCCn1cc(Nc2ncc3c(n2)-c2c(nn(C)c2-c2ccc(-c4cnn(C(C)C)c4)cc2)CC3)cn1` [I-027], the IC50 in test [1] came out at 0.28 nM. For the same molecule, the EC50 in test [2] and in test [3] was less than 10 nM each time.

In the case of `CC(=O)N1CCC(n2cc(Nc3ncc4c(n3)-c3c(nn(C)c3-c3ccc(-c5cnn(C)c5)cc3)CC4)cn2)CC1` [I-051], the IC50 in test [1] is 0.21 nM. The EC50 in test [2] is 10 to 100 nM; in test [3], less than 10 nM.

Take `CCn1ccc(Nc2ncc3c(n2)-c2c(nn(C)c2-c2ccc(-c4cnn(C5CCNCC5)c4)cc2)CC3)n1` [I-063]: the IC50 in test [1] came to 0.16 nM. The figures for the EC50 in test [2] and in test [3] were 10 to 100 nM and less than 10 nM, respectively.

Regarding `CCn1ccc(Nc2ncc3c(n2)-c2c(nn(C)c2-c2ccc(-c4cnn(C)c4)cc2Cl)CC3)n1` [I-064], the IC50 in test [1] was 0.31 nM. Moreover, the EC50 in test [2] and in test [3] was less than 10 nM throughout.

On to `CCn1ccc(Nc2ncc3c(n2)-c2c(nn(C)c2-c2ccc(-c4c(C)noc4C)cc2)CC3)n1` [I-066], for which, in test [1], the IC50 was found to be 15 nM. For the same molecule, the EC50 in test [2] was 100 to 600 nM; in test [3], 100 to 200 nM.

For `CCn1ccc(Nc2ncc3c(n2)-c2c(nn(C)c2-c2ccc(-c4cnn(CCN5CCC(N(C)C)CC5)c4)cc2)CC3)n1` [I-119], the IC50 in test [1] was 0.09 nM. Besides, the EC50 in test [2] and in test [3] was less than 10 nM each time.

As for `COc1cc(C(=O)N2CCN(C)CC2)ccc1Nc1ncc2c(n1)-c1c(nn(C)c1-c1ccc(-c3cnn(C)c3)cc1)CC2` [I-129], the IC50 in test [1] was determined as 0.16 nM. For the same molecule, the EC50 in test [2] and in test [3] was less than 10 nM in each case.

`COc1cc(C(=O)NC(C)C)ccc1Nc1ncc2c(n1)-c1c(nn(C)c1-c1ccc(-c3cnn(C)c3)cc1)CC2` [I-132]: in test [1], the IC50 came out at 0.26 nM. In addition, in test [2], the concentration giving a half-maximal response (EC50) is less than 10 nM.

Turning to `CN(C)[C@H]1CCN(C(=O)Cn2ccc(Nc3ncc4c(n3)-c3c(nn(C)c3-c3ccc(-c5cnn(C)c5)cc3)CC4)n2)C1` [I-143], the IC50 in test [1] turned out to be 0.24 nM. In addition, the EC50 is 10 to 100 nM in test [2] and less than 10 nM in test [3].

On to `COc1cc(C(=O)N2CCOCC2)ccc1Nc1ncc2c(n1)-c1c(nn(C)c1-c1ccc(-c3cnn(C)c3)cc1)CC2` [I-156], for which the IC50 in test [1] came to 0.22 nM. For the same molecule, the EC50 in test [2] and in test [3] was less than 10 nM throughout.

With `COc1cc(C(=O)NC2CCOCC2)ccc1Nc1ncc2c(n1)-c1c(nn(C)c1-c1ccc(-c3cnn(C)c3)cc1)CC2` [I-160], in test [1], the IC50 is 0.61 nM. In addition, the EC50 in test [2] and in test [3] was less than 10 nM in each case.

For `COc1cc(C(=O)N[C@@H]2CCN(C)C[C@H]2OC)ccc1Nc1ncc2c(n1)-c1c(nn(C)c1-c1ccc(-c3cnn(C)c3)cc1)CC2` [I-163], the IC50 in test [1] was 0.23 nM. For the same molecule, the EC50 in test [2] and in test [3] was less than 10 nM in each case.

Regarding `COc1cc(C(=O)NC2CN(C)C2)ccc1Nc1ncc2c(n1)-c1c(nn(C)c1-c1ccc(-c3cnn(C)c3)cc1)CC2` [I-164], the IC50 in test [1] worked out at 0.19 nM. Besides, the EC50 was 10 to 100 nM in test [2] and less than 10 nM in test [3].

As to `CCN1CCN(c2ccc(Nc3ncc4c(n3)-c3c(nn(C)c3-c3ccc(-c5cnn(C)c5)cc3)CC4)c(OC)c2)CC1` [I-170], the IC50 in test [1] was found to be 0.09 nM. The concentration for a half-maximal effect (EC50) in test [2] and in test [3] was less than 10 nM in each case.

Consider `COc1cc(N2CCN(C3CCOCC3)CC2)ccc1Nc1ncc2c(n1)-c1c(nn(C)c1-c1ccc(-c3cnn(C)c3)cc1)CC2` [I-171], for which the IC50 in test [1] was 0.08 nM. Further, the EC50 in test [2] and in test [3] was less than 10 nM throughout.

Regarding `COc1cc(N2CCN(C(C)C)CC2)ccc1Nc1ncc2c(n1)-c1c(nn(C)c1-c1ccc(-c3cnn(C)c3)cc1)CC2` [I-172], the IC50 in test [1] was found to be 0.05 nM. Also, the EC50 in test [2] and in test [3] was less than 10 nM in each case.

`COCCN1CCC(n2cc(Nc3ncc4c(n3)-c3c(nn(C)c3-c3ccc(-c5cnn(C)c5)cc3)CC4)cn2)CC1` [I-175]: the IC50 in test [1] is 0.16 nM. In addition, in test [3], the EC50 is less than 10 nM.

Consider `COc1cc(N2CCN(S(=O)(=O)N(C)C)CC2)ccc1Nc1ncc2c(n1)-c1c(nn(C)c1-c1ccc(-c3cnn(C)c3)cc1)CC2` [I-176], for which the IC50 in test [1] came out at 2 nM. In addition, the EC50 in test [2] and in test [3] was less than 10 nM in each case.

As for `Cn1cc(-c2ccc(-c3c4c(nn3C)CCc3cnc(Nc5cnn(C6CCN(S(C)(=O)=O)CC6)c5)nc3-4)cc2)cn1` [I-177], the IC50 in test [1] was found to be 0.23 nM. The EC50 in test [3] was less than 10 nM.

For the molecule `CN(C)S(=O)(=O)N1CCC(n2cc(Nc3ncc4c(n3)-c3c(nn(C)c3-c3ccc(-c5cnn(C)c5)cc3)CC4)cn2)CC1` [I-178], in test [1], the IC50 was 0.34 nM. Moreover, in test [3], the EC50 is less than 10 nM.

Consider `CC(=O)N1CCC(n2cc(Nc3ncc4c(n3)-c3c(nn(C)c3-c3ccc(-c5cnn(C)c5)nc3)CC4)cn2)CC1` [I-180], for which, in test [1], the IC50 was 2 nM. The EC50 was in the range of 100 to 600 nM in test [2] and 10 to 100 nM in test [3].

Broadly, the IC50 is the concentration needed to halve the response being measured. Broadly, the EC50 is the concentration needed to bring the measured effect to its halfway point.
